Consider one molecule from paper PMC2362731, “Phase I study of Carzelesin (U-80,244) given (4-weekly) by intravenous bolus schedule” (British Journal of Cancer, 1999).

The test system of one series is solid tumours. The experiment in a line: Antitumour activity (WHO response criteria). Format: in vivo, human. The settings on record: 51 patients, eight not evaluable. The text has this: (§1) Carzelesin (U-80,244, Figure 1A) is a cyclopropylpyrroloindole (CPI) prodrug analogue of CC-1065. […] CPI drugs are a class of compounds with unique DNA interactive properties. These agents fit into the minor groove region of DNA, and the CPI function in the molecule mediates a covalent binding to the N3 position of adenine in A-T rich regions, thus forming DNA adducts in a sequence selective fashion (Hurley et al, 1984; Reynolds et al, 1985). Three new CPIs have now been developed. […] Bizelesin differs from the classical CPI drugs in that it contains two chloromethyl functions, which are both converted (via intramolecular rearrangements) to the CPI alkyl- ating species that interact with DNA. Consequently, this agent is capable of forming DNA interstrand cross-links (Lee et al, 1991). […] Therefore, efforts were directed to modu- late the alkylation rate by the preparation of CPI prodrugs that would require chemical or enzymatic conversion. The activation of Carzelesin is a two-step reaction with hydrolysis of the phenyl- urethane substituent to form the intermediate compound U-76,073, followed by ring closure to form the active product U-76,074 (Figure 1B). […] The concentration of U-76,074 (active metabolite) extended above the lower limit of quantitation (1 ng ml-1) for short periods of time and only at the higher dose levels. […]

The nature of series [1]: Ex vivo conversion in blood samples. Format: in vitro ADME, human. The settings on record: if the sample is not immediately cooled in ice-water.
From the text: as §1

Series [2] concerns murine and human tumour xenografts. The settings on record: ref Li et al, 1992, cited from earlier work.

On to `CCN(CC)c1ccc2cc(C(=O)Nc3ccc4[nH]c(C(=O)N5C[C@@H](CCl)c6c5cc(OC(=O)Nc5ccccc5)c5[nH]cc(C)c65)cc4c3)oc2c1` [Carzelesin], for which, in the series with solid tumours, the “patients with progressive disease as best overall response” value is “Thirty-four patients” and the “patients with stable disease as best overall response” value was “nine patients”. The “stability in blood sample ex vivo” value in series [1] is reported as “readily converted to U-76,074 ex vivo”. In series [2] (compared with adozelesin), the “efficacy in a broad panel of murine and human tumour xenografts” value is “more efficacious”. In addition, in series [2] (Houghton et al, 1995), the “efficacy against Lewis lung carcinoma, B16 melanoma, colon 38 carcinoma, colon CX1 adenocarcinoma, lung LX-1 tumour, ovarian 2780 and prostatic DU-145 carcinoma” value was “highly effective”.
